Results as given in PubChem BioAssay (NCI).
Where “and” joins values, the source holds several entries; their conditions need not be identical. Equal values may be shown once.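 In this assay, cells in 96-well plates receive the compound at five concentrations for 48 hours. Endpoints are linearly interpolated between the surrounding concentrations. GI50: concentration for 50% inhibition of growth. Definition used: TGI = concentration required for complete inhibition of growth.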

Key:
Assay in all cases: DTP human tumour cell line panel, 48 h
OVCAR-5 ovarian = tested on: OVCAR-5 ovarian
UACC-257 melanoma = tested on: UACC-257 melanoma
HT29 colon = tested on: HT29 colon
SN12C renal = tested on: SN12C renal
K-562 leukemia = tested on: K-562 leukemia
MALME-3M melanoma = tested on: MALME-3M melanoma
DU-145 prostate = tested on: DU-145 prostate
UO-31 renal = tested on: UO-31 renal
HOP-62 NSCLC = tested on: HOP-62 NSCLC
MOLT-4 leukemia = tested on: MOLT-4 leukemia

Row | Structure (SMILES) | GI50 (OVCAR-5 ovarian) | TGI (OVCAR-5 ovarian) | GI50 (UACC-257 melanoma) | TGI (UACC-257 melanoma) | GI50 (HT29 colon) | TGI (HT29 colon) | GI50 (SN12C renal) | TGI (SN12C renal) | GI50 (K-562 leukemia) | TGI (K-562 leukemia) | GI50 (MALME-3M melanoma) | TGI (MALME-3M melanoma) | GI50 (DU-145 prostate) | TGI (DU-145 prostate) | GI50 (UO-31 renal) | TGI (UO-31 renal) | GI50 (HOP-62 NSCLC) | TGI (HOP-62 NSCLC) | GI50 (MOLT-4 leukemia) | TGI (MOLT-4 leukemia)
1 | CC(C)(C)n1cc(-c2ccnc(NCCNS(=O)(=O)c3ccc(Br)cc3)c2)c(-c2cccc(O)c2)n1 | 1780 nM | 3.53 µM | 1930 nM | 4.76 µM | 1520 nM | 3.75 µM | 1720 nM | 3.2 µM | 573 nM | 2.85 µM | 1670 nM | 3.34 µM | 2140 nM | 4.86 µM | 1350 nM | 4.47 µM | 1500 nM | 3 µM |  | 
2 | O=C(Oc1c(I)ccccc1=O)c1ccc([N+](=O)[O-])cc1 |  | > 100 µM |  | 35.1 µM |  | 24.8 µM |  | 67.9 µM |  | 61.9 µM |  | 30.7 µM |  | 26.8 µM |  | 68.9 µM |  | > 100 µM |  | 
3 | COC(=O)[C@H](Cc1ccccc1)NC(=O)c1csc([C@@H](C[C@H](C(C)C)N(C)C(=O)[C@@H](NC(=O)[C@H]2CCCCN2C)C2CC2)OC(C)=O)n1 | 316 nM | > 25 µM | > 10700 nM | > 25 µM | 17.5 nM | > 25 µM | 103 nM | > 25 µM | 11.8 nM | > 25 µM | 2160 nM | > 25 µM | 21.8 nM | > 25 µM | 258 nM | > 25 µM | 74.9 nM | > 25 µM | 36.2 nM | > 25 µM
4 | Nc1ncnc2occ(-c3ccc(NC(=O)Nc4cc(C(F)(F)F)cc(C(F)(F)F)c4)cc3)c12 | 4390 nM | 8.99 µM | 3270 nM | 6.69 µM | 1830 nM | 5.29 µM | 2120 nM | 5.51 µM | 925 nM | 9.21 µM | 4090 nM | 9.27 µM | 3590 nM | 7.34 µM | 1930 nM | 6.89 µM | 3660 nM | 6.99 µM | 4160 nM | 17.8 µM
5 | Oc1cccc(-c2nc3ccccc3s2)c1 |  | 51.5 µM |  | > 100 µM |  | 42.9 µM |  | > 100 µM |  | > 100 µM |  | 31.1 µM |  | > 100 µM |  | > 100 µM |  | > 100 µM |  | > 100 µM
6 | CC1Cc2c(N(C)C)ncnc2N(C)c2ccc(Cl)cc21 (stereo unspecified) |  |  |  |  | 3220 nM | 37 µM | 10200 nM | 37.1 µM | 781 nM | > 100 µM | 3730 nM | 60 µM | 5490 nM | > 100 µM | 4400 nM | 72.4 µM | 4810 nM | 73.4 µM | 3520 nM | 27.3 µM
7 | O=C(/C=C/N1CCN(c2cccc(C(F)(F)F)c2)CC1)c1ccc(Cl)cc1Cl | 30600 nM | > 100 µM | 26500 nM | 61 µM | 38600 nM | > 100 µM | 21300 nM | 40.6 µM | 35800 nM | > 100 µM | 17400 nM | 36.2 µM | 35100 nM | > 100 µM | 31300 nM | > 100 µM | 19000 nM | 35.4 µM | 28800 nM | 70.2 µM
8 | CCOP(=O)(OCC)/C(C#N)=C\c1cccc2ccccc12 |  | > 100 µM |  | > 100 µM |  | > 100 µM |  | > 100 µM |  | > 100 µM |  | > 100 µM |  | > 100 µM |  | > 100 µM |  | > 100 µM |  | > 100 µM
9 | CN1C(=O)c2cc(Cl)nc3c(NC(=O)c4cccc(Cl)c4)c(Cl)c(NC(=O)c4cccc(Cl)c4)c1c23 | 12800 nM | 30.1 µM | 1910 nM | 3.55 µM | 1970 nM | 4.05 µM | 1840 nM | 3.48 µM | 1010 nM | 2.57 µM | 1660 nM | 3.44 µM | 2280 nM | 5.19 µM | 1710 nM | 3.44 µM |  |  | 2070 nM | 5.21 µM
10 | Cn1c(=O)n(-c2ccc(C(C)(C)C#N)cc2)c2c3cc(-c4cnc5ccccc5c4)ccc3ncc21 | 21.3 nM and 7.59 nM and 15.9 nM | > 100 µM | < 10.5 nM and 6.72 nM and < 10 nM | 0.0493 µM and 0.436 µM and 0.0457 µM | 10.1 nM and 6.03 nM and < 10 nM |  | 10.1 nM and 4.61 nM and < 10 nM | > 100 µM | 31.5 nM and 7.31 nM and 11.8 nM | > 100 µM | 5.76 nM and < 10 nM | 0.04 µM and 0.0568 µM | < 10 nM and 5.75 nM | 33.8 µM and > 10 µM and > 100 µM | < 10 nM and 3.61 nM | 0.0749 µM | < 10 nM and 6.05 nM | 11.9 µM and > 2.72 µM | 25 nM and 7.03 nM and 14.8 nM | 
11 | c1ccc2c(c1)nc(NCCN1CCNCC1)c1c3ccccc3[nH]c21 | 477 nM | 3.15 µM | 1710 nM | 3.27 µM | 167 nM | 1.53 µM | 190 nM | 1.18 µM | 93.5 nM | 2.07 µM | 1790 nM | 3.82 µM | 227 nM | 1.4 µM | 567 nM | 2.05 µM | 404 nM | 2.2 µM | 98.3 nM | 0.887 µM
12 | COc1ccc(S(=O)(=O)N/N=C/C(=O)O)cc1 |  | > 1150 µM |  | > 1250 µM |  | > 580 µM |  | 1140 µM |  | > 1170 µM |  | > 1250 µM |  | 843 µM |  | > 1250 µM |  | 1130 µM |  | 694 µM
13 | COc1ccc2c(c1O)[C@@]13C=C(O)C(=O)C=C1[C@@H](C2)N(C)CC3 |  | > 100 µM |  | > 100 µM |  | > 100 µM |  | > 100 µM |  | > 100 µM |  | > 100 µM |  | > 100 µM |  | > 100 µM |  | > 100 µM |  | > 100 µM
14 | COc1cc[nH]c1/C=C1\C(=O)Nc2ccc(F)c(C#CC3(O)CCOCC3)c21 | 714 nM | > 7.16 µM | 749 nM | 2.76 µM | 501 nM | 2.81 µM | 615 nM | > 25 µM | 1360 nM | > 25 µM | 1220 nM | 5.81 µM | 806 nM | > 25 µM | 512 nM | > 6.99 µM | 878 nM | > 10.4 µM | 679 nM | 2.92 µM
15 | CC[C@]12C=CCN3CC[C@]4(C(=C(C(=O)OC)C1)Nc1cc(O)ccc14)[C@@H]32 | 19800 nM | 57 µM | 25800 nM | 85.9 µM | 19900 nM | 63.1 µM | 15400 nM | 29.7 µM | 7590 nM | > 100 µM | 11800 nM | 26.3 µM | 21700 nM | 45.3 µM | 12900 nM | 25.8 µM | 17200 nM | 38.9 µM | 21600 nM | 74.2 µM
16 | COc1cc(C2C3=C(COC3=O)N(CCO)c3cc4c(cc32)CCC4)cc(OC)c1O (stereo unspecified) | 3180 nM | > 32.5 µM |  | > 32.5 µM | 156 nM |  | 499 nM | > 32.5 µM | 161 nM | > 32.5 µM | 104 nM | > 32.5 µM | 136 nM | 2.31 µM | 426 nM | > 32.5 µM | 213 nM | > 32.5 µM | 520 nM | > 32.5 µM
17 | NC(Cc1nn[nH]n1)C(=O)O (stereo unspecified) |  | > 100 µM |  | > 100 µM |  | > 100 µM |  | > 100 µM |  | > 100 µM |  | > 100 µM |  | > 100 µM |  |  |  | > 100 µM |  | > 100 µM
18 | CCOC(=O)c1[nH]c2c(c1C)-c1[nH]c(=O)c(S(=O)(=O)c3ccccc3)cc1SC2 | > 100000 nM | > 100 µM | 67100 nM | > 100 µM | 40700 nM | > 100 µM | 93600 nM | > 100 µM | 23200 nM | > 100 µM | 36400 nM | > 100 µM | 30600 nM | > 100 µM | > 100000 nM | > 100 µM | 44300 nM | > 100 µM | 15700 nM | > 100 µM
19 | COc1c(O)c(OC)c(C(=O)/C=C/c2ccccc2)c(O)c1OC |  | > 100 µM |  | > 100 µM |  | > 100 µM |  | 32.6 µM |  | > 100 µM |  | > 100 µM |  | > 100 µM |  |  |  |  |  | > 100 µM
20 | O=C(N[C@@H]1CCCc2ccccc21)[C@H](CCC(=O)N1CCN(C2CCCCC2)CC1)N1C(=O)[C@@H](N2C(=O)OC[C@@H]2c2ccccc2)[C@H]1/C=C/c1ccccc1 | 4010 nM | 47.5 µM | 1490 nM | 3.36 µM | 1990 nM | 5.21 µM | 3720 nM | 27.3 µM |  |  | 1630 nM | 3.15 µM | 2900 nM | 19.3 µM | 2010 nM | 8.68 µM | 3870 nM | 17.4 µM | 2270 nM | > 100 µM
21 | O=C1c2cccnc2C(=O)c2c1c(C(=O)OCCCN1CCOCC1)c1ccccn21 | 79.4 nM | 4.73 µM | 18.2 nM | 0.0758 µM | 354 nM | 2.18 µM | < 10 nM | 1.82 µM | < 12.4 nM |  | 12.5 nM | 1.71 µM | < 10 nM | 1.29 µM |  |  |  |  | 135 nM | 12.5 µM
22 | COc1cc2oc3ccccc3c(=O)c2cc1CSc1ccccc1N |  | > 100 µM |  | > 100 µM |  | > 100 µM |  | > 100 µM |  | > 100 µM |  | > 79.5 µM |  | > 84.9 µM |  |  |  | > 93.3 µM |  | 26.1 µM
